Data published in patent US8431563B2 (priority 2010, dated 2013).
Structures can show the parent of a compound that is named as a salt.

Experiments:
[1] = target: T1, GKRP (Glucokinase Regulatory Protein) with human His-hepatic GK (Homo sapiens, UniProt Q14397); assay: GKRP LC MS/MS Biochemical Assay; conditions: GK-GKRP EC50 (LC MS/MS), 13C-glucose-6-phosphate formation; 1 μM GKRP (10×), 30 nM GK (5×)
T1 sequence (Q14397 1-625): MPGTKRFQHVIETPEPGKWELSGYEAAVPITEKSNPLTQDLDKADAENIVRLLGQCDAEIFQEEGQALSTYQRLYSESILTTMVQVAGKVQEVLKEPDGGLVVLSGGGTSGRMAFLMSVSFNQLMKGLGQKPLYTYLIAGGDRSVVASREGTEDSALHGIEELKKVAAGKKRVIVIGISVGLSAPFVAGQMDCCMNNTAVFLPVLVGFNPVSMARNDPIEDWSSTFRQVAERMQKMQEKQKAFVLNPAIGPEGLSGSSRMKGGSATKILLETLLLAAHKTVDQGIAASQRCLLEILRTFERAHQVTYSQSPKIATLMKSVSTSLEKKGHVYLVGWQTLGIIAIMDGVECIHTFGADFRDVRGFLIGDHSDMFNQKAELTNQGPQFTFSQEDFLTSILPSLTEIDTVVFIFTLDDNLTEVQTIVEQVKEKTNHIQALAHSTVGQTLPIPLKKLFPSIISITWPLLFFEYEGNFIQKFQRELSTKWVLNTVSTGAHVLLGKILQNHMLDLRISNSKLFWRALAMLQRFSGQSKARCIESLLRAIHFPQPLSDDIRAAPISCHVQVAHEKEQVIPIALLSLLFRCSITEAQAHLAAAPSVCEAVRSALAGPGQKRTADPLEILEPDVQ
Protocol: GKRP LC MS/MS Biochemical Assay
(§1) This assay is used to directly measure the formation of ^13C-glucose-6-phosphate from ^13C-glucose by liquid chromatography-mass spectrometry (LC MS/MS). Begin by preparing the following solutions: Compound Buffer (CB): 50 mM Tris, pH 7.5/4 mM MgCl2/6% DMSO/fresh 10 mM DTT from 1M frozen stock. Enzyme Buffer (EB): 50 mM Tris, pH 7.5/4 mM MgCl2/6% DMSO/fresh 0.1% BSA/fresh 0.01% Brij-35 (10% BSA and 1% Brij-35 stock). GK (Glucokinase) Working Stock (5×): Dilute human His-hepatic GK to 30 nM in EB buffer. […] After 30 minutes add 10 μl of GK Working Stock (5×). Re-seal the plate and incubate for another 30 minutes at room temperature while mixing. After the second 30 minutes, stop the reaction by the addition of 50 μl of 100% acetonitrile, seal, and mix for 5-10 minutes. Run 10 μl of this sample through the LC MS/MS (API 3200, Applied Biosystems Inc., Carlsbad, Calif.).

[2] = target: T1, GKRP (Glucokinase Regulatory Protein) with human His-hepatic GK; assay: GKRP NADPH Coupled Assay; assay type: biochemical; conditions: GK-GKRP EC50 (NADPH-coupled), indirect measure of glucose-6-phosphate, fluorescence; 1 μM GKRP (10×), 20 nM GK (5×)
Protocol: as §1
This assay is used as an indirect measure of glucose-6-phosphate (G6P) formed from glucose due to the enzymatic activity of glucokinase. Assay format is the same as for GKRP LC MS/MS Biochemical Assay with the following exceptions. GK Working Stock (5×): Dilute human His-hepatic GK to 20 nM in EB buffer. Stop & Detection Reagent (2×): Dilute β-nicotinamide adenine dinucleotide phosphate sodium salt (β-NADP) (Aldrich-Sigma, St. Louis, Mo.) to 2 mM from 100 mM stock (stock in 10 mM Tris, pH 9.2) and dilute glucose-6-phosphate dehydrogenase (Aldrich-Sigma, St. Louis, Mo.) to 0.04 Unit/μl from 10 Unit/μl (stock in 10 mM Tris pH 7.5/0.05% Brij-35) in 0.2 M Tris, pH 9.2/8% DMSO. After the initial 30 minute incubation add 10 μl of 20 nM GK diluted in EB (5×). Re-seal the plate and incubate for another 1 hour at room temperature while mixing. After 1 hour remove the seal and add 50 μl of Stop & Detection Reagent and incubate for 5 minutes at room temperature while mixing.

SMILES | EC50 [1] [nM] | EC50 [2] [nM]
CN(Cc1ccccc1)CC1CN(S(=O)(=O)c2cccs2)CCN1c1ccc(C(C)(O)C(F)(F)F)cc1 (mixture of isomers) [Example 62, 2-(4-(2-((benzyl(methyl)amino)methyl)-4-(2-thiophenylsulfonyl)-1-piperazinyl)phenyl)-1,1,1-trifluoro-2-propanol] | 1220 | 1010
CC(O)(c1ccc(N2CCN(S(=O)(=O)c3cccs3)CC2Cc2ccncc2)cc1)C(F)(F)F (mixture of isomers) [Example 76, 1,1,1-trifluoro-2-(4-(2-(4-pyridinylmethyl)-4-(2-thiophenylsulfonyl)-1-piperazinyl)phenyl)-2-propanol trifluoroacetate] | 522 | 207
O=S(=O)(c1ccccc1)N1CCN(c2ccc(C(O)(C3CC3)C(F)(F)F)cc2)CC1 (racemic) [Example 15, 1-cyclopropyl-2,2,2-trifluoro-1-(4-(4-(phenylsulfonyl)-1-piperazinyl)phenyl)ethanol] | 2770 | 2620
CC(O)(c1ccc(-c2ccc(S(=O)(=O)c3ccccc3)c(Cl)c2)nc1)C(F)(F)F (racemic) [Example 18, 2-(6-(3-chloro-4-(phenylsulfonyl)phenyl)-3-pyridinyl)-1,1,1-trifluoro-2-propanol] | 3570 | 3750
CC(O)(c1ccc(-c2ccc(S(=O)(=O)c3ccccc3)c(Cl)c2)cc1)C(F)(F)F (racemic) [Example 19, 2-(3′-chloro-4′-(phenylsulfonyl)-4-biphenylyl)-1,1,1-trifluoro-2-propanol] | 4230 | 3580
CC(C)(O)C#Cc1cc(-c2ccc(C(C)(O)C(F)(F)F)cc2)ccc1S(=O)(=O)c1ccccc1 (racemic) [Example 20, 2-methyl-4-(4-(phenylsulfonyl)-4′-(2,2,2-trifluoro-1-hydroxy-1-methylethyl)-3-biphenylyl)-3-butyn-2-ol] | 2250 | 1800
CC(O)(c1ccc(N2CCN(S(=O)(=O)c3ccccc3)CC2)cc1)C(F)(F)F (racemic) [Example 24, 1,1,1-trifluoro-2-(4-(4-(phenylsulfonyl)-1-piperazinyl)phenyl)-2-propanol] | 3960 | 1840
Cc1cccc(CC2CN(S(=O)(=O)c3cccs3)CCN2c2ccc(C(O)(C(F)(F)F)C(F)(F)F)cc2)c1 (racemic) [Example 42, 1,1,1,3,3,3-hexafluoro-2-(4-(2-(3-methylbenzyl)-4-(2-thiophenylsulfonyl)-1-piperazinyl)phenyl)-2-propanol hydrochloride] | 688 | 724
Cc1ccc(CC2CN(S(=O)(=O)c3cccs3)CCN2c2ccc(C(O)(C(F)(F)F)C(F)(F)F)cc2)cc1 (racemic) [Example 43, 1,1,1,3,3,3-hexafluoro-2-(4-(2-(4-methylbenzyl)-4-(2-thiophenylsulfonyl)-1-piperazinyl)phenyl)-2-propanol hydrochloride] | 2620 | 2500
CC(O)(c1ccc(N2CCN(S(=O)(=O)c3cccs3)CC2CN2CC3CCC(C2)O3)cc1)C(F)(F)F (racemic) [Example 46, 1,1,1-trifluoro-2-(4-(2-(8-oxa-3-azabicyclo[3.2.1]oct-3-ylmethyl)-4-(2-thiophenylsulfonyl)-1-piperazinyl)phenyl)-2-propanol] | 178 | 154
CC1(C#Cc2cc(C(C)(O)C(F)(F)F)ccc2N2CCN(S(=O)(=O)c3cccs3)CC2)COC1 (racemic) [Example 75, 1,1,1-trifluoro-2-(3-((3-methyl-3-oxetanyl)ethynyl)-4-(4-(2-thiophenylsulfonyl)-1-piperazinyl)phenyl)-2-propanol] | 2800 | 2900
CC(O)(c1ccc(N2CCN(S(=O)(=O)c3ccccc3)CC2)cc1)C(F)(F)F (single isomer, unassigned) [Example 24 Peak #1, 1,1,1-trifluoro-2-(4-(4-(phenylsulfonyl)-1-piperazinyl)phenyl)-2-propanol] | 2070 | 2570
C[C@H]1CN(S(=O)(=O)c2nccs2)CCN1c1ccc(C(C)(O)C(F)(F)F)cc1 (single isomer, unassigned) [Example 34 Peak #2] | 1920 | 1940
CC(O)(c1ccc(N2CCN(S(=O)(=O)c3cccs3)CC2CC2CCOCC2)cc1)C(F)(F)F (single isomer, unassigned) [Example 37 Peak #1, 1,1,1-trifluoro-2-(4-(2-(tetrahydro-2H-pyran-4-ylmethyl)-4-(2-thiophenylsulfonyl)-1-piperazinyl)phenyl)-2-propanol] | 162 | 111
CC(O)(c1ccc(N2CCN(S(=O)(=O)c3cccs3)CC2CC2CCOCC2)cc1)C(F)(F)F (single isomer, unassigned) [Example 37 Peak #2, 1,1,1-trifluoro-2-(4-(2-(tetrahydro-2H-pyran-4-ylmethyl)-4-(2-thiophenylsulfonyl)-1-piperazinyl)phenyl)-2-propanol] | 128 | 124
C[C@H]1COCCN1CC1CN(S(=O)(=O)c2cccs2)CCN1c1ccc(C(C)(O)C(F)(F)F)cc1 (single isomer, unassigned) [Example 45 Peak #1] | 62 | 52
CC(O)(c1ccc(N2CCN(S(=O)(=O)c3cccs3)C[C@@H]2Cc2ccccc2)cc1)C(F)(F)F (single isomer, unassigned) [Example 65 Peak #1] | 643 | 367
CC(O)(c1ccc(N2CCN(S(=O)(=O)c3cccs3)C[C@@H]2Cc2ccccc2)cc1)C(F)(F)F (single isomer, unassigned) [Example 65 Peak #2] | 240 | 166
O=S(=O)(c1ccccc1)N1CCN(c2ccc(C(O)(C(F)(F)F)C(F)(F)F)cc2)CC1 [Example 2, 1,1,1,3,3,3-hexafluoro-2-(4-(4-(phenylsulfonyl)-1-piperazinyl)phenyl)-2-propanol] | 1100 | 803
O=S(=O)(c1ccsc1)N1CCN(c2ccc(C(O)(C(F)(F)F)C(F)(F)F)cc2)CC1 [Example 3, 1,1,1,3,3,3-hexafluoro-2-(4-(4-(3-thiophenylsulfonyl)-1-piperazinyl)phenyl)-2-propanol] | 964 | 597
Cc1ccccc1S(=O)(=O)N1CCN(c2ccc(C(O)(C(F)(F)F)C(F)(F)F)cc2)CC1 [Example 4, 1,1,1,3,3,3-hexafluoro-2-(4-(4-((2-methylphenyl)sulfonyl)-1-piperazinyl)phenyl)-2-propanol] | 1710 | 1270
Cn1ccc(S(=O)(=O)N2CCN(c3ccc(C(O)(C(F)(F)F)C(F)(F)F)cc3)CC2)n1 [Example 5, 1,1,1,3,3,3-hexafluoro-2-(4-(4-((1-methyl-1H-pyrazol-3-yl)sulfonyl)-1-piperazinyl)phenyl)-2-propanol] | 5380 | 1580
O=S(=O)(c1ccccc1F)N1CCN(c2ccc(C(O)(C(F)(F)F)C(F)(F)F)cc2)CC1 [Example 6, 1,1,1,3,3,3-hexafluoro-2-(4-(4-((2-fluorophenyl)sulfonyl)-1-piperazinyl)phenyl)-2-propanol] | 1520 | 1880
O=S(=O)(c1ccccn1)N1CCN(c2ccc(C(O)(C(F)(F)F)C(F)(F)F)cc2)CC1 [Example 7, 1,1,1,3,3,3-hexafluoro-2-(4-(4-(2-pyridinylsulfonyl)-1-piperazinyl)phenyl)-2-propanol] | 3290 | 3780
